Starred links: 1 amine or outer side, 2 acyl side, 3 side chain; linkers in the order of their positions; H or OH if unused. Positions of bridges follow the written chain, without caps; N, C: chain ends. Residues, ends and D or L forms follow the SMILES beside them. Chains are numbered I, II in the order given. *: point of attachment. X1 = NC12CC3(C(=O)NCCCCCC(=O)[*:1])CC(C(=O)NCCCCCC(=O)[*:2])(C1)CC(C(=O)NCCCCCC(=O)[*:3])(C2)C3; X2 = O=C(CCC(=O)[*:1])NCCCC12CC3CC(CCCNC(=O)CCC(=O)[*:2])(C1)CC(CCCNC(=O)CCC(=O)[*:3])(C3)C2; Diglycolyl = O=C(COCC(=O)[*:2])[*:1]; X3 = CC(C)C[C@@H](C)N*
What follows are compounds tested against Tumor necrosis factor receptor superfamily member 10B (Homo sapiens, UniProt O14763) (assay: Binding affinity to human recombinant DR5 assessed as dissociation constant by SPR analysis).
Tumor necrosis factor receptor superfamily member 10B, sequence (O14763 whole entry): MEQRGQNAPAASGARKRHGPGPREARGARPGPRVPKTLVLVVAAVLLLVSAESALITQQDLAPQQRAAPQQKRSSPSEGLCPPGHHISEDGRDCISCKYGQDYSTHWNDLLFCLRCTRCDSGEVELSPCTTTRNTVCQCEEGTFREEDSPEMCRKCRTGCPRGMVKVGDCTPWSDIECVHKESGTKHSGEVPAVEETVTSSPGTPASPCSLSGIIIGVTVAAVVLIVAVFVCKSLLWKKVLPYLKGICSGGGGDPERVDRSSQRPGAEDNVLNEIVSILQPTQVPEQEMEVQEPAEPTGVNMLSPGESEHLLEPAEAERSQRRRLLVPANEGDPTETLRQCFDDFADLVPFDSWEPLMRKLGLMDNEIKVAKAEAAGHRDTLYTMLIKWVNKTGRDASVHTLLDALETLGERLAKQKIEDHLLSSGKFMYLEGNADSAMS

Compound	Kd [nM]
CC[C@H](C)[C@@H]1NC(=O)[C@H](CCCCNC(=O)COCC(=O)NCCCC[C@@H]2NC(=O)[C@H](CC(N)=O)NC(=O)[C@H](CC(=O)O)NC(=O)[C@H](CC(C)C)NC(=O)[C@@H](NC(=O)[C@H](CC(=O)O)NC(=O)[C@H](Cc3c[nH]c4ccccc34)NC(C)=O)CSSC[C@@H](C(=O)N[C@H](C(=O)N[C@@H](CCCCN)C(=O)N[C@@H](CC(C)C)C(N)=O)C(C)C)NC(=O)[C@H](CCC(N)=O)NC(=O)[C@H](CCCNC(=N)N)NC(=O)[C@H](CCCNC(=N)N)NC(=O)CNC(=O)[C@H]([C@@H](C)CC)NC2=O)NC(=O)[C@H](CC(N)=O)NC(=O)[C@H](CC(=O)O)NC(=O)[C@H](CC(C)C)NC(=O)[C@@H](NC(=O)[C@H](CC(=O)O)NC(=O)[C@H](Cc2c[nH]c3ccccc23)NC(C)=O)CSSC[C@@H](C(=O)N[C@H](C(=O)N[C@@H](CCCCN)C(=O)N[C@@H](CC(C)C)C(N)=O)C(C)C)NC(=O)[C@H](CCC(N)=O)NC(=O)[C@H](CCCNC(=N)N)NC(=O)[C@H](CCCNC(=N)N)NC(=O)CNC1=O (I: Ac-WDCLDNKIGRRQCVKL-NH2 / II: Ac-WDCLDNKIGRRQCVKL-NH2; disulfide I:3-I:13, II:3-II:13; linker I:7-II:7 via Diglycolyl)	2.29
CC[C@H](C)[C@@H]1NC(=O)[C@H](CCCNC(=N)N)NC(=O)[C@H](CC(N)=O)NC(=O)[C@H](CC(=O)O)NC(=O)[C@H](CC(C)C)NC(=O)[C@@H](NC(=O)[C@H](CC(=O)O)NC(=O)[C@H](Cc2c[nH]c3ccccc23)NC(C)=O)CSSC[C@@H](C(=O)N[C@H](C(=O)N[C@@H](CCCCN)C(=O)N[C@@H](CC(C)C)C(N)=O)C(C)C)NC(=O)[C@H](CCC(N)=O)NC(=O)[C@H](CCCNC(=N)N)NC(=O)[C@H](CCCCNC(=O)COCC(=O)NCCCC[C@@H]2NC(=O)CNC(=O)[C@H]([C@@H](C)CC)NC(=O)[C@H](CCCNC(=N)N)NC(=O)[C@H](CC(N)=O)NC(=O)[C@H](CC(=O)O)NC(=O)[C@H](CC(C)C)NC(=O)[C@@H](NC(=O)[C@H](CC(=O)O)NC(=O)[C@H](Cc3c[nH]c4ccccc34)NC(C)=O)CSSC[C@@H](C(=O)N[C@H](C(=O)N[C@@H](CCCCN)C(=O)N[C@@H](CC(C)C)C(N)=O)C(C)C)NC(=O)[C@H](CCC(N)=O)NC(=O)[C@H](CCCNC(=N)N)NC2=O)NC(=O)CNC1=O (I: Ac-WDCLDNRIGKRQCVKL-NH2 / II: Ac-WDCLDNRIGKRQCVKL-NH2; disulfide I:3-I:13, II:3-II:13; linker I:10-II:10 via Diglycolyl)	0.114
CC[C@H](C)[C@@H]1NC(=O)[C@H](CCCNC(=N)N)NC(=O)[C@H](CC(N)=O)NC(=O)[C@H](CC(=O)O)NC(=O)[C@H](CC(C)C)NC(=O)[C@@H](NC(=O)[C@H](CC(=O)O)NC(=O)[C@H](Cc2c[nH]c3ccccc23)NC(C)=O)CSSC[C@@H](C(=O)N[C@H](C(=O)N[C@@H](CCCCNC(=O)COCC(=O)NCCCC[C@H](NC(=O)[C@@H](NC(=O)[C@@H]2CSSC[C@H](NC(=O)[C@H](CC(=O)O)NC(=O)[C@H](Cc3c[nH]c4ccccc34)NC(C)=O)C(=O)N[C@@H](CC(C)C)C(=O)N[C@@H](CC(=O)O)C(=O)N[C@@H](CC(N)=O)C(=O)N[C@@H](CCCNC(=N)N)C(=O)N[C@@H]([C@@H](C)CC)C(=O)NCC(=O)N[C@@H](CCCNC(=N)N)C(=O)N[C@@H](CCCNC(=N)N)C(=O)N[C@@H](CCC(N)=O)C(=O)N2)C(C)C)C(=O)N[C@@H](CC(C)C)C(N)=O)C(=O)N[C@@H](CC(C)C)C(N)=O)C(C)C)NC(=O)[C@H](CCC(N)=O)NC(=O)[C@H](CCCNC(=N)N)NC(=O)[C@H](CCCNC(=N)N)NC(=O)CNC1=O (I: Ac-WDCLDNRIGRRQCVKL-NH2 / II: Ac-WDCLDNRIGRRQCVKL-NH2; disulfide I:3-I:13, II:3-II:13; linker I:15-II:15 via Diglycolyl)	1.24
I: Ac-WDCLDNKIGRRQCVKL-NH2 / II: Ac-WDCLDNKIGRRQCVKL-NH2 / III: Ac-WDCLDNKIGRRQCVKL-NH2 (disulfide I:3-I:13, II:3-II:13, III:3-III:13; linker I:7-II:7-III:7 via X2)	0.05
I: Ac-WDCLDNRIGKRQCVKL-NH2 / II: Ac-WDCLDNRIGKRQCVKL-NH2 / III: Ac-WDCLDNRIGKRQCVK-X3 (disulfide I:3-I:13, II:3-II:13, III:3-III:13; linker I:10-II:10-III:10 via X2)	0.539
I: Ac-WDCLDNRIGRRQCVKL-NH2 / II: Ac-WDCLDNRIGRRQCVKL-NH2 / III: Ac-WDCLDNRIGRRQCVKL-NH2 (disulfide I:3-I:13, II:3-II:13, III:3-III:13; linker I:15-II:15-III:15 via X1)	9.1
I: Ac-WDCLDNRIGRRQCVKL-NH2 / II: Ac-WDCLDNRIGRRQCVKL-NH2 / III: Ac-WDCLDNRIGRRQCVKL-NH2 (disulfide I:3-I:13, II:3-II:13, III:3-III:13; linker I:15-II:15-III:15 via X2)	0.88

Each compound was assayed on BJAB (assay: Antiproliferative activity against human BJAB cells assessed as reduction in cell viability incubated for 16 hrs by MTS assay).
Assay type: functional, cell-based

Compound	IC50 [nM]
I: Ac-WDCLDNRIGRRQCVKL-NH2 / II: Ac-WDCLDNRIGRRQCVKL-NH2 / III: Ac-WDCLDNRIGRRQCVKL-NH2 (disulfide I:3-I:13, II:3-II:13, III:3-III:13; linker I:15-II:15-III:15 via X1)	31.2

Reference: ChEMBL document CHEMBL6177934, “Chemical synthetic approaches to mimic the TRAIL: promising cancer therapeutics” (RSC Med Chem, 2024)
